What was measured:
Format in all cases: cell-based
mu opioid receptor = mu opioid receptor (Cavia porcellus, UniProt A0ACM8Q262); test: Antagonism of morphine (mu agonist) in the guinea pig ileum (GPI) preparation; design: key to Ke, M: No agonist antagonism observed; settings: for Kb: compound 100 or 200 nM, 15 min incubation, read-out: Ke
Protocol: (§1) 1. Guinea Pig Ileal Longitudinal Muscle (GPI). Ilea from guinea pigs were taken approximately 10 cm from the ileocaecal junction, and a strip of longitudinal muscle with the myenteric plexus attached was prepared by method of Rang et al., Brit. J. Pharmacol., 22, 356 (1964), the disclosure of which is incorporated by reference herein. A 1 cm portion of this strip was then mounted between two platinum electrodes placed in a 10 ml organ bath and connected to an isometric transducer; contractions were recorded on a polygraph. Contractions of the ileal strip were initiated by supramaximal rectangular pulses in all preparations (80 V of 0.5 ms duration at a frequency of 0.1 Hz). Krebs bicarbonate solution containing 1.25 μM chlorpheniramine maleate was the bathing solution and was continuously bubbled with 95% O2 and 5% CO2. The organ bath was maintained at 36°-37° C. The longitudinal muscle strip was allowed to equilibrate with continuous stimulation for a minimum of 90 min.

kappa opioid receptor = biological target: T1, kappa opioid receptor (Cavia porcellus, UniProt P41144); test: Antagonism of ethylketazocine (kappa agonist) in the guinea pig ileum (GPI) preparation; design: key to Ke, EK: No agonist antagonism observed; settings: for Kb: compound 100 or 200 nM, 15 min incubation, read-out: Ke, EK
T1 construct: a strip of longitudinal muscle with the myenteric plexus attached was prepared; from tissue; host or cells: guinea pig ileum longitudinal muscle with myenteric plexus
Protocol: as §1

delta opioid receptor [1] = biological target: T2, delta opioid receptor (Mus musculus, UniProt P32300); test: Antagonism of DADLE (delta agonist) in the mouse vas deferens (MVD) preparation; design: Both vasa deferentia were dissected out of mice; from tissue; host or cells: mouse vas deferens; key to Ke, DADLE: No agonist antagonism observed; settings: for Kb: compound 100 or 200 nM, 15 min incubation, read-out: Ke, DADLE; for relative delta antagonist potency: compared within the series
Protocol: (§2) The organ bath was maintained at 37° C.
The results of these bioassays are summarized on Table IV, below.

[2] = tested on: mouse vas deferens (MVD) and guinea pig ileum (GPI) preparations; test: Agonist activity in the MVD and GPI preparations
Protocol: as §1, §2

delta opioid receptor [3] = biological target: T2, delta opioid receptor; test: Comparison as delta antagonist with ICI 174864 and M8008
[4] = compound 7 tested at 5 nM or less

mu opioid receptor, sequence (A0ACM8Q262 1-400): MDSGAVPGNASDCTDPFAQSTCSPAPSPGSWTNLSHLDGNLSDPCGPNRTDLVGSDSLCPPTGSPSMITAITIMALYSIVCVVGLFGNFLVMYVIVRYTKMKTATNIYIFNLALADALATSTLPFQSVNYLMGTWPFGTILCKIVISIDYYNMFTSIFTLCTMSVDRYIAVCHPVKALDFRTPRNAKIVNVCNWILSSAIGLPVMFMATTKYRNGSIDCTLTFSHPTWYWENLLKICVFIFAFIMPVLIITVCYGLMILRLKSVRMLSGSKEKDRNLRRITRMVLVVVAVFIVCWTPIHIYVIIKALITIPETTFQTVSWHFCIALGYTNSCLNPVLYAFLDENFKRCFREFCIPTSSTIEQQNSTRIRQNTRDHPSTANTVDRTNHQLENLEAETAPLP
T2 sequence (P32300 whole entry): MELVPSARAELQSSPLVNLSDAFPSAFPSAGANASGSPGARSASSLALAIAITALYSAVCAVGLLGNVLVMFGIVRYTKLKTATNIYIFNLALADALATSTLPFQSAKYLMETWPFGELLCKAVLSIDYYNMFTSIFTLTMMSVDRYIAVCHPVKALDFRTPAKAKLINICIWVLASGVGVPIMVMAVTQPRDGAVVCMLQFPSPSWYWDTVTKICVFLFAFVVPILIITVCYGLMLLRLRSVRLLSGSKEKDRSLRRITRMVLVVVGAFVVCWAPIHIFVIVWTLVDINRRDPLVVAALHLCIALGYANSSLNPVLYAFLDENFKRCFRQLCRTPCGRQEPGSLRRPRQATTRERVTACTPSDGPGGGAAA
T1 sequence (P41144 whole entry): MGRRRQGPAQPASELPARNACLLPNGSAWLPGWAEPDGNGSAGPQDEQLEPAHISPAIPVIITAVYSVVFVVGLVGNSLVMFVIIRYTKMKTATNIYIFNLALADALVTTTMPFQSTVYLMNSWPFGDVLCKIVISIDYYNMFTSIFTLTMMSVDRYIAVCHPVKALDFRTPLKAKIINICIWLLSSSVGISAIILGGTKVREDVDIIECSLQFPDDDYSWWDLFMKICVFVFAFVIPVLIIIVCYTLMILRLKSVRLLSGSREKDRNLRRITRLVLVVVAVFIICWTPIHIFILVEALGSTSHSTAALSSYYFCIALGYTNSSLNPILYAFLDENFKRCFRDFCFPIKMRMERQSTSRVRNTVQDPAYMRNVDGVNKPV

| Compound | Kb (mu opioid receptor) [nM] | Kb (kappa opioid receptor) [nM] | Kb (delta opioid receptor [1]; agonist DADLE, MVD) [nM] | relative delta antagonist potency (delta opioid receptor [1]) | further results |
| --- | --- | --- | --- | --- | --- |
| Cc1ccc2[nH]c3c(c2c1)C[C@@]1(O)[C@H]2Cc4ccc(O)c5c4[C@@]1(CCN2CC1CC1)[C@H]3O5 [Compound 5] | > 160 | > 250 | 4.2 |  |  |
| Oc1ccc2c3c1O[C@H]1c4nc5ccccc5cc4C[C@@]4(O)[C@@H](C2)N(CC2CC2)CC[C@]314 [Compound 17, 17-cyclopropylmethyl-6,7-dehydro-4,5α-epoxy-3,14-dihydroxy-6,7,2',3'-quinolinomorphinan] |  | 16.3 | 2.7 | A similar relationship was observed |  |
| CN1CC[C@]23c4c5ccc(O)c4O[C@H]2c2[nH]c4ccccc4c2C[C@@]3(O)[C@H]1C5 [Compound 7] |  |  |  |  | Ke, M (mu opioid receptor; [4]): e; Ke, EK (kappa opioid receptor; [4]): e; agonist activity [2]: partial agonist activity; relative agonist potency ([2]; compared with the N-cyclopropyl analogues): substantially more potent as an agonist than the N-cyclopropyl analogues; Ke, DADLE (delta opioid receptor [1]; agonist DADLE, MVD, compound 7 tested at 5 nM or less): e |
| Cc1cccc2c3c([nH]c12)[C@@H]1Oc2c(O)ccc4c2[C@@]12CCN(CC1CC1)[C@H](C4)[C@]2(O)C3 [Compound 13] | 19.1 | > 330 | 1.5 |  |  |
| COc1cccc2c3c([nH]c12)[C@@H]1Oc2c(O)ccc4c2[C@@]12CCN(CC1CC1)[C@H](C4)[C@]2(O)C3 [Compound 14] | 35 |  | 6.6 |  |  |
| Oc1ccc2c3c1O[C@H]1c4nc5ccccc5nc4C[C@@]4(O)[C@@H](C2)N(CC2CC2)CC[C@]314 [Compound 16, 6,7,2',3'-benzopyrazino-17-cyclopropylmethyl-6,7-dehydro-3,14-dihydroxy-4,5α-epoxymorphinan] |  | 13.4 | 1.4 | A similar relationship was observed |  |
| Oc1ccc2c3c1O[C@H]1c4[nH]c5cccc(F)c5c4C[C@@]4(O)[C@@H](C2)N(CC2CC2)CC[C@]314 [Compound 10] | > 125 | > 170 | 5.5 |  |  |
| O=[N+]([O-])c1ccc2[nH]c3c(c2c1)C[C@@]1(O)[C@H]2Cc4ccc(O)c5c4[C@@]1(CCN2CC1CC1)[C@H]3O5 [Compound 6] | 92 | ≥ 200 | 168 |  |  |
| Oc1ccc2c3c1O[C@H]1c4[nH]c5ccccc5c4C[C@@]4(O)[C@@H](C2)N(CC2CC2)CC[C@]314 [Compound 1, 17-Cyclopropylmethyl-6,7-dehydro-4,5α-epoxy-3,14-dihydroxy-6,7,2',3'-indolomorphinan] |  |  | 0.22 | an order of magnitude more potent than its substituted congeners | potency compared with ICI 174864 (delta opioid receptor [3]): considerably more potent than the peptide delta antagonist, ICI 174864; potency relative to the peptide delta antagonist ICI 174864 (delta opioid receptor [3]; in one assay): at least 30 times; antagonism of the effect of the delta agonist DADLE / delta antagonist activity (delta opioid receptor [1]): highly active delta antagonist |
| Oc1ccc2c3c1O[C@H]1c4oc5ccccc5c4C[C@@]4(O)[C@@H](C2)N(CC2CC2)CC[C@]314 [Compound 8, 6,7,2',3'-Benzofurano-17-cyclopropylmethyl-6,7-dehydro-3,14-dihydroxy-4,5α-epoxymorphinan] | 30.8 | 50.8 | 1.8 | less potent | antagonism of the effect of the delta agonist DADLE / delta antagonist activity (delta opioid receptor [1]): retains substantial delta antagonist activity; relative delta selectivity (delta opioid receptor [1]; compared with compound 1): less selective than 1 |
| Oc1ccc2c3c1O[C@H]1c4[nH]c5c(F)cccc5c4C[C@@]4(O)[C@@H](C2)N(CC2CC2)CC[C@]314 [Compound 11] | 5.3 | > 330 | 0.35 |  |  |
| Oc1ccc2[nH]c3c(c2c1)C[C@@]1(O)[C@H]2Cc4ccc(O)c5c4[C@@]1(CCN2CC1CC1)[C@H]3O5 [Compound 9] |  | 68.5 |  |  |  |
| Cn1c2c(c3ccccc31)C[C@@]1(O)[C@H]3Cc4ccc(O)c5c4[C@@]1(CCN3CC1CC1)[C@H]2O5 [Compound 2] | 12.5 | 22.2 | 1.5 | reduction of antagonist potency |  |
| COc1ccc2[nH]c3c(c2c1)C[C@@]1(O)[C@H]2Cc4ccc(O)c5c4[C@@]1(CCN2CC1CC1)[C@H]3O5 [Compound 4] |  | 12.6 | 5.7 |  |  |
| Oc1ccc2c3c1O[C@H]1c4[nH]c5ccc(F)cc5c4C[C@@]4(O)[C@@H](C2)N(CC2CC2)CC[C@]314 [Compound 3] | 61.7 | 46.2 | 2 |  |  |

— US4816586A, “Delta opioid receptor antagonists” (Regents of the University of Minnesota, priority 1987, dated 1989)
